From ChEMBL document CHEMBL1909046, “DrugMatrix in vitro pharmacology data”

Columns and labels:
[1] = DRUGMATRIX: Serotonin (5-Hydroxytryptamine) 5-HT3 radioligand binding (ligand: [3H] GR-65630); type: cell membranes, Membrane; conditions: hek293; Not Active = under 50% inhibition at 10 µM
[2] = DRUGMATRIX: Phosphodiesterase PDE4 enzyme inhibition (substrate: [3H]cAMP + cAMP); conditions: u-937; Not Active = under 50% inhibition at 10 µM
[3] = molecular target: T1, Muscarinic acetylcholine receptor M4 (Homo sapiens, UniProt P08173); type: cell membranes, CHO-K1, Membrane; conditions: cho-k1; note: in other assays of this panel Not Active means under 50% inhibition at 10 µM
T1 sequence (P08173 whole entry): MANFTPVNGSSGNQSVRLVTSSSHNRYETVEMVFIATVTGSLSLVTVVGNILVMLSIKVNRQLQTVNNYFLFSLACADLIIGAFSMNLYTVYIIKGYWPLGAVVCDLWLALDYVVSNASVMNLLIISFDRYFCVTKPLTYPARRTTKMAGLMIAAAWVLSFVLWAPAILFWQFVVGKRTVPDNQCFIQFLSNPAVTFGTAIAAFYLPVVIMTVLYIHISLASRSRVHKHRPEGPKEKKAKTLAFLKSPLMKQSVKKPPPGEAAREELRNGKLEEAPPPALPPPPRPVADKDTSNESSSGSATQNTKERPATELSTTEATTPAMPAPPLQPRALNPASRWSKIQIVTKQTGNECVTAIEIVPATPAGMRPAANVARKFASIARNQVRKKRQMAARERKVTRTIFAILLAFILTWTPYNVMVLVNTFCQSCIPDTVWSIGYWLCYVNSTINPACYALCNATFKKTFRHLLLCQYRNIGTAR

[4] = molecular target: 5-hydroxytryptamine receptor 6 (Homo sapiens, UniProt P50406); type: cell membranes, HeLa, Membrane; note: in other assays of this panel Not Active means under 50% inhibition at 10 µM
[5] = DRUGMATRIX: Glutamate, Kainate radioligand binding (ligand: [3H] Kainic acid); type: cell membranes, Rattus norvegicus, Wistar, Brain, Membrane; conditions: Not Active = under 50% inhibition at 10 µM
Melanocortin receptor 4 = Melanocortin receptor 4 (Homo sapiens, UniProt P32245); type: cell membranes, Membrane; conditions: hek293; note: in other assays of this panel Not Active means under 50% inhibition at 10 µM
[6] = molecular target: T2, Cholecystokinin receptor type A (Homo sapiens, UniProt P32238); type: cell membranes, Membrane; conditions: 1321-n1; note: in other assays of this panel Not Active means under 50% inhibition at 10 µM
T2 sequence (P32238 whole entry): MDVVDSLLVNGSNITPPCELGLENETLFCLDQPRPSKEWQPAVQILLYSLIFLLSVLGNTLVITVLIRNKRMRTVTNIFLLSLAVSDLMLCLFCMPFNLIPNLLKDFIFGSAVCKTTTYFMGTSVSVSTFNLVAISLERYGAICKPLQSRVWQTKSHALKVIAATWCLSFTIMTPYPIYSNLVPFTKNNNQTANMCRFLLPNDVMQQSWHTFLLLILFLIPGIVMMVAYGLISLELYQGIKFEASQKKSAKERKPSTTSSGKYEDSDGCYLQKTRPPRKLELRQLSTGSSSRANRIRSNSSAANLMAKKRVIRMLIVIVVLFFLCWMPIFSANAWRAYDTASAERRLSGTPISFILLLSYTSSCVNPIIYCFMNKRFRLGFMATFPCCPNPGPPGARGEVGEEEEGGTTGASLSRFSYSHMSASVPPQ

Melanocortin receptor 4, sequence (P32245 whole entry): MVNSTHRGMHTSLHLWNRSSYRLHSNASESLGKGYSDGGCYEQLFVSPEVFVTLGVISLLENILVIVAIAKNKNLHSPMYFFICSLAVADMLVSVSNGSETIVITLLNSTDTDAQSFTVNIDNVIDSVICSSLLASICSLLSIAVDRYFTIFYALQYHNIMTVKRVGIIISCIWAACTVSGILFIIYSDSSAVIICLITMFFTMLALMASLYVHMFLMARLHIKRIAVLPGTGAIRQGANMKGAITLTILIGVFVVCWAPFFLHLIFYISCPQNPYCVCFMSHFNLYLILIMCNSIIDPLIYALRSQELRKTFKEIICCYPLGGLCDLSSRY
5-hydroxytryptamine receptor 6, sequence (P50406 whole entry): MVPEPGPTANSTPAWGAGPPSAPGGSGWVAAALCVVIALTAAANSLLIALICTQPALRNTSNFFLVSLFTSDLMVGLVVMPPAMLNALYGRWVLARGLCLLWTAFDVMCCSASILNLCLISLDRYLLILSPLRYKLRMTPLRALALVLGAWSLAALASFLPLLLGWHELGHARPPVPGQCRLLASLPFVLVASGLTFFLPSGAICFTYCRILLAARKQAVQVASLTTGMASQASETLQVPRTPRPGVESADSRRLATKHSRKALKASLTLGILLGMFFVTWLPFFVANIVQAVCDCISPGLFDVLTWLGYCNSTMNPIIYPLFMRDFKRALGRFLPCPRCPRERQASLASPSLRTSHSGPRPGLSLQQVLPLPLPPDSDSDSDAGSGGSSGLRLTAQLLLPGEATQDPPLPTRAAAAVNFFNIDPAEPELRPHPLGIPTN

## COc1ccc(Cl)cc1C(=O)NCCc1ccc(S(=O)(=O)NC(=O)NC2CCCCC2)cc1 [GLYBURIDE]
[1]
  IC50: Not Active
  Ki: Not Active
[2]
  IC50: Not Active
  Ki: Not Active
[3]
  IC50: Not Active
[4]; hela
  IC50: Not Active
[5]
  IC50: Not Active
  Ki: Not Active
Melanocortin receptor 4
  IC50: Not Active
[6]
  IC50: Not Active

## CHROMIC CHLORIDE
[1]
  IC50: Not Active
  Ki: Not Active
[2]
  IC50: Not Active
  Ki: Not Active
[3]
  IC50: Not Active
  Ki: Not Active
[4]; hela
  IC50: Not Active
  Ki: Not Active
[5]
  IC50: Not Active
  Ki: Not Active
Melanocortin receptor 4
  IC50: Not Active
  Ki: Not Active
[6]
  IC50: Not Active
  Ki: Not Active

## CCN1C[C@]2(COC)[C@H](O)C[C@H](OC)[C@@]34[C@@H]5C[C@@]6(O)[C@H](OC(=O)c7ccccc7)[C@@H]5[C@@](OC(C)=O)([C@@H]([C@H](OC)[C@H]23)[C@@H]14)[C@@H](O)[C@@H]6OC [ACONITINE]
[1]
  IC50: Not Active
  Ki: Not Active
[2]
  IC50: Not Active
  Ki: Not Active
[3]
  IC50: Not Active
[4]; hela
  IC50: Not Active
[5]
  IC50: Not Active
  Ki: Not Active
Melanocortin receptor 4
  IC50: Not Active
[6]
  IC50: Not Active

## O=C(O)CCc1nc(-c2ccccc2)c(-c2ccccc2)o1 [OXAPROZIN]
[1]
  IC50: Not Active
  Ki: Not Active
[2]
  IC50: Not Active
  Ki: Not Active
[3]
  IC50: Not Active
[4]; hela
  IC50: Not Active
[5]
  IC50: Not Active
  Ki: Not Active
Melanocortin receptor 4
  IC50: Not Active
[6]
  IC50: Not Active

## Cc1ccnc2c1NC(=O)c1cccnc1N2C1CC1 [NEVIRAPINE]
[1]
  IC50: Not Active
  Ki: Not Active
[2]
  IC50: Not Active
  Ki: Not Active
[3]
  IC50: Not Active
[4]; hela
  IC50: Not Active
[5]
  IC50: Not Active
  Ki: Not Active
Melanocortin receptor 4
  IC50: Not Active
[6]
  IC50: Not Active

## Clc1cc(Cl)c(OCC#CI)cc1Cl [HALOPROGIN]
[1]
  IC50: Not Active
  Ki: Not Active
[2]
  IC50: Not Active
  Ki: Not Active
[3]
  IC50: Not Active
[4]; read-out: IC50
  IC50: 4.01 µM
[4]; read-out: Ki
  Ki: 1.86 µM
[5]
  IC50: Not Active
  Ki: Not Active
Melanocortin receptor 4
  IC50: Not Active
[6]
  IC50: Not Active

## COc1ccccc1OCCNCC(O)COc1cccc2[nH]c3ccccc3c12 (stereo not drawn) [CARVEDILOL]
[1]
  IC50: Not Active
  Ki: Not Active
[2]
  IC50: Not Active
  Ki: Not Active
[3]
  IC50: Not Active
[4]; read-out: IC50
  IC50: 1.52 µM
[4]; read-out: Ki
  Ki: 0.705 µM
[5]
  IC50: Not Active
  Ki: Not Active
Melanocortin receptor 4
  IC50: Not Active
[6]
  IC50: Not Active

## CCN1CCN(c2cc3c(cc2F)c(=O)c(C(=O)O)cn3C2CC2)CC1 [ENROFLOXACIN]
[1]
  IC50: Not Active
  Ki: Not Active
[2]
  IC50: Not Active
  Ki: Not Active
[3]
  IC50: Not Active
[4]; hela
  IC50: Not Active
[5]
  IC50: Not Active
  Ki: Not Active
Melanocortin receptor 4
  IC50: Not Active
[6]
  IC50: Not Active

## POVIDONE
[1]
  IC50: Not Active
  Ki: Not Active
[2]
  IC50: Not Active
  Ki: Not Active
[3]
  IC50: Not Active
  Ki: Not Active
[4]; hela
  IC50: Not Active
  Ki: Not Active
[5]
  IC50: Not Active
  Ki: Not Active
Melanocortin receptor 4
  IC50: Not Active
  Ki: Not Active
[6]
  IC50: Not Active
  Ki: Not Active

## C=C(Cl)Cl [1,1-DICHLOROETHENE]
[1]
  IC50: Not Active
  Ki: Not Active
[2]
  IC50: Not Active
  Ki: Not Active
[3]
  IC50: Not Active
[4]; hela
  IC50: Not Active
[5]
  IC50: Not Active
  Ki: Not Active
Melanocortin receptor 4
  IC50: Not Active
[6]
  IC50: Not Active

## CC(=O)[C@]1(O)Cc2c(O)c3c(c(O)c2[C@@H](O[C@H]2C[C@H](N)[C@H](O)[C@H](C)O2)C1)C(=O)c1ccccc1C3=O [IDARUBICIN]
[1]
  IC50: Not Active
  Ki: Not Active
[2]
  IC50: Not Active
  Ki: Not Active
[3]
  IC50: Not Active
[4]; hela
  IC50: Not Active
[5]
  IC50: Not Active
  Ki: Not Active
Melanocortin receptor 4
  IC50: Not Active
[6]
  IC50: Not Active

## NC(=O)CN1CCCC1=O
[1]
  IC50: Not Active
  Ki: Not Active
[2]
  IC50: Not Active
  Ki: Not Active
[3]
  IC50: Not Active
[4]; hela
  IC50: Not Active
[5]
  IC50: Not Active
  Ki: Not Active
Melanocortin receptor 4
  IC50: Not Active
[6]
  IC50: Not Active

## CO[C@H]1O[C@@H]2O[C@@]3(C)CC[C@H]4[C@H](C)CC[C@@H]([C@H]1C)[C@@]24OO3
[1]
  IC50: Not Active
  Ki: Not Active
[2]
  IC50: Not Active
  Ki: Not Active
[3]
  IC50: Not Active
[4]; hela
  IC50: Not Active
[5]
  IC50: Not Active
  Ki: Not Active
Melanocortin receptor 4
  IC50: Not Active
[6]
  IC50: Not Active

## CC12CCC(CC1)C(C)(C)O2 [EUCALYPTOL]
[1]
  IC50: Not Active
  Ki: Not Active
[2]
  IC50: Not Active
  Ki: Not Active
[3]
  IC50: Not Active
[4]; hela
  IC50: Not Active
[5]
  IC50: Not Active
  Ki: Not Active
Melanocortin receptor 4
  IC50: Not Active
[6]
  IC50: Not Active

## C[N+](C)(C)CCOC(N)=O.[Cl-] [CARBACHOL]
[1]
  IC50: Not Active
  Ki: Not Active
[2]
  IC50: Not Active
  Ki: Not Active
[3]
  IC50: Not Active
[4]; hela
  IC50: Not Active
[5]
  IC50: Not Active
  Ki: Not Active
Melanocortin receptor 4
  IC50: Not Active
[6]
  IC50: Not Active

## NS(=O)(=O)c1cc(C(=O)O)c(NCc2ccco2)cc1Cl [FUROSEMIDE]
[1]
  IC50: Not Active
  Ki: Not Active
[2]
  IC50: Not Active
  Ki: Not Active
[3]
  IC50: Not Active
[4]; hela
  IC50: Not Active
[5]
  IC50: Not Active
  Ki: Not Active
Melanocortin receptor 4
  IC50: Not Active
[6]
  IC50: Not Active

## CC(C)NCC(O)COc1ccc(CC(N)=O)cc1 (stereo not drawn) [ATENOLOL]
[1]
  IC50: Not Active
  Ki: Not Active
[2]
  IC50: Not Active
  Ki: Not Active
[3]
  IC50: Not Active
[4]; hela
  IC50: Not Active
[5]
  IC50: Not Active
  Ki: Not Active
Melanocortin receptor 4
  IC50: Not Active
[6]
  IC50: Not Active

## Oc1ncnc2[nH]ncc12 [ALLOPURINOL]
[1]
  IC50: Not Active
  Ki: Not Active
[2]
  IC50: Not Active
  Ki: Not Active
[3]
  IC50: Not Active
[4]; hela
  IC50: Not Active
[5]
  IC50: Not Active
  Ki: Not Active
Melanocortin receptor 4
  IC50: Not Active
[6]
  IC50: Not Active

## NCC(CC(=O)O)c1ccc(Cl)cc1 (stereo not drawn) [BACLOFEN]
[1]
  IC50: Not Active
  Ki: Not Active
[2]
  IC50: Not Active
  Ki: Not Active
[3]
  IC50: Not Active
[4]; hela
  IC50: Not Active
[5]
  IC50: Not Active
  Ki: Not Active
Melanocortin receptor 4
  IC50: Not Active
[6]
  IC50: Not Active

## O=C1CN(/N=C/c2ccc([N+](=O)[O-])o2)C(=O)N1 [NITROFURANTOIN]
[1]
  IC50: Not Active
  Ki: Not Active
[2]
  IC50: Not Active
  Ki: Not Active
[3]
  IC50: Not Active
[4]; hela
  IC50: Not Active
[5]
  IC50: Not Active
  Ki: Not Active
Melanocortin receptor 4
  IC50: Not Active
[6]
  IC50: Not Active

## CC12CCC(CC1=O)C2(C)C (stereo not drawn) [CAMPHOR]
[1]
  IC50: Not Active
  Ki: Not Active
[2]
  IC50: Not Active
  Ki: Not Active
[3]
  IC50: Not Active
[4]; hela
  IC50: Not Active
[5]
  IC50: Not Active
  Ki: Not Active
Melanocortin receptor 4
  IC50: Not Active
[6]
  IC50: Not Active

## CNC[C@H](O)c1ccc(O)c(O)c1 [EPINEPHRINE]
[2]
  IC50: Not Active
  Ki: Not Active
[3]
  IC50: Not Active
[4]; hela
  IC50: Not Active
[5]
  IC50: Not Active
  Ki: Not Active
Melanocortin receptor 4
  IC50: Not Active
[6]
  IC50: Not Active
